Source: US8247211B2, “Glycopeptide antibiotics” (American Cyanamid Company, priority 2001, dated 2012)
Converted amounts (≈) assume the structure as drawn.

What was measured:
[1] = system: Staphylococcus aureus-SMITH (GC 4543); experiment: Acute lethal infection in mice (ED50); type: in vivo; settings: female CD-1 mice, intraperitoneal challenge, intravenous dose 30 min. after infection, 7 day survival ratios
Summary of the method: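 Lethal systemic infection model: female CD-1 mice, 20 ± 1-2 g, intraperitoneal challenge. Single intravenous treatment 30 min after infection; 7-day survival, pooled from 3 tests, gives ED50.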

[2] = Anatomic pathology (heart and kidney histopathology) in mice; type: in vivo, CD-1 mice; settings: 20 mg/kg intravenously daily for 9 days, microscopic histopathology on day 10
Summary of the method: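 Juvenile CD-1 mice (20 days old; 5 vehicle, 5 treated) received glycopeptide antibiotic 20 mg/kg i.v. daily for 9 days. Necropsied tissues formalin-fixed, paraffin-embedded, H&E stained and examined microscopically; findings graded slight to severe versus controls.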

Streptococcus sp. = experiment: In vitro antibacterial evaluation: minimum inhibitory concentration (MIC), broth dilution method; type: cell-based; settings: 18 hours at 35° C.
Summary of the method: (§1)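 MIC read as lowest drug level preventing visible growth. Organisms at 5×10^5 CFU/mL were exposed to a 64-0.06 μg/mL dilution series in Muller-Hinton II […] following NCCLS broth dilution standard M7-A2.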

Escherichia coli = experiment: as above; type: cell-based; settings: 18 hours at 35° C.
Summary of the method: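 An MIC is reported for each organism as the least concentration giving inhibition, using broth dilution over 64-0.06 μg/mL with a 5×10^5 CFU/mL inoculum.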

Enterococcus sp. = experiment: as above; type: cell-based; settings: 18 hours at 35° C.
Summary of the method: as §1

Staphylococcus sp. = experiment: as above; type: cell-based
Summary of the method: as §1

[3] = type: in vivo; settings: mice, 20 mg/kg intravenously daily for 9 days, serum on day 10
Experimental: 20-day-old CD-1 mice were divided into a vehicle control group (5 mice) and a treatment group (5 mice). Samples of glycopeptide antibiotics were administered at 20 mg/kg intravenously daily for 9 days. Animals were necropsied on day 10 Sera were analyzed for BUN (blood urea nitrogen), creatinine, AST (aspartic aminotransferase), and ALT (alanine aminotransferase) by routine, standard, automated methods using an Hitachi 747 chemistry analyzer.

[4] = broth dilution, inoculum 5×10^5 CFU/mL

## N=C1NCC(C(O)C2NC(=O)C(Cc3ccc(OC4OC(CO)C(OC5OC6COC7(OC6C(O)C5O)C5CC6CC(C5)CC7C6)C(O)C4O)cc3)NC(=O)C(Cc3ccccc3)NC(=O)CNC(=O)C(CO)NC(=O)C(C(O)C3CNC(=N)N3C3OC(CO)C(O)C(O)C3O)NC2=O)N1 (centres unmarked) [Example 220]
[1]
  median effective dose (ED50), Staphylococcus aureus-SMITH (GC 4543): 0.19 mg/kg
[2]
  Anatomical Pathology (Day 10), Heart: 0
  Anatomical Pathology (Day 10), Kidney: +++
Streptococcus sp.; Streptococcus agalactiae (GC 4564)
  MIC Streptococcus agalactiae (GC 4564): <0.06 µg/mL
Streptococcus sp.; Streptococcus pneumoniae (ATCC 6301)
  MIC Streptococcus pneumoniae (ATCC 6301): <0.06 µg/mL
Streptococcus sp.; Streptococcus pneumoniae (GC 1894)
  MIC Streptococcus pneumoniae (GC 1894): <0.06 µg/mL
Streptococcus sp.; Streptococcus pneumoniae (GC 4565)
  MIC Streptococcus pneumoniae (GC 4565): <0.06 µg/mL
Streptococcus sp.; Streptococcus pyogenes (GC 4563)
  MIC Streptococcus pyogenes (GC 4563): <0.06 µg/mL
Streptococcus sp.; [4]
  MIC Streptococcus agalactiae (GC 4564): <0.06 µg/mL
  MIC Streptococcus pneumoniae (ATCC 6301): <0.06 µg/mL
  MIC Streptococcus pneumoniae (GC 1894): <0.06 µg/mL
  MIC Streptococcus pneumoniae (GC 4565): <0.06 µg/mL
  MIC Streptococcus pyogenes (GC 4563): <0.06 µg/mL
Escherichia coli; Escherichia coli (ATCC 25922)
  MIC Escherichia coli (ATCC 25922): 32 µg/mL (≈ 22.6 µM)
Escherichia coli; Escherichia coli (GC 4559)
  MIC Escherichia coli (GC 4559): 16 µg/mL (≈ 11.3 µM)
Escherichia coli; Escherichia coli (GC 4560)
  MIC Escherichia coli (GC 4560): 0.5 µg/mL (≈ 0.354 µM)
Enterococcus sp.; Enterococcus avium (GC 4558)
  MIC Enterococcus avium (GC 4558): 2 µg/mL (≈ 1.41 µM)
Enterococcus sp.; Enterococcus faecalis (ATCC 29212)
  MIC Enterococcus faecalis (ATCC 29212): 2 µg/mL (≈ 1.41 µM)
Enterococcus sp.; Enterococcus faecalis (GC 2242)
  MIC Enterococcus faecalis (GC 2242): 1 µg/mL (≈ 0.707 µM)
Enterococcus sp.; Enterococcus faecalis (GC 2691)
  MIC Enterococcus faecalis (GC 2691): 2 µg/mL (≈ 1.41 µM)
Enterococcus sp.; Enterococcus faecalis (GC 3059)
  MIC Enterococcus faecalis (GC 3059): 2 µg/mL (≈ 1.41 µM)
Enterococcus sp.; Enterococcus faecalis (GC 4552)
  MIC Enterococcus faecalis (GC 4552): 2 µg/mL (≈ 1.41 µM)
Enterococcus sp.; Enterococcus faecalis (GC 4553)
  MIC Enterococcus faecalis (GC 4553): 1 µg/mL (≈ 0.707 µM)
Enterococcus sp.; Enterococcus faecalis (GC 4554)
  MIC Enterococcus faecalis (GC 4554): 2 µg/mL (≈ 1.41 µM)
Enterococcus sp.; Enterococcus faecalis (GC 6189)
  MIC Enterococcus faecalis (GC 6189): 1 µg/mL (≈ 0.707 µM)
Enterococcus sp.; Enterococcus faecium (GC 2243)
  MIC Enterococcus faecium (GC 2243): 1 µg/mL (≈ 0.707 µM)
Enterococcus sp.; Enterococcus faecium (GC 4556)
  MIC Enterococcus faecium (GC 4556): 1 µg/mL (≈ 0.707 µM)
Enterococcus sp.; Enterococcus faecium (GC 4557)
  MIC Enterococcus faecium (GC 4557): 1 µg/mL (≈ 0.707 µM)
Enterococcus sp.; [4]
  MIC Enterococcus avium (GC 4558): 2 µg/mL (≈ 1.41 µM)
  MIC Enterococcus faecalis (ATCC 29212): 2 µg/mL (≈ 1.41 µM)
  MIC Enterococcus faecalis (GC 2242): 1 µg/mL (≈ 0.707 µM)
  MIC Enterococcus faecalis (GC 2691): 2 µg/mL (≈ 1.41 µM)
  MIC Enterococcus faecalis (GC 3059): 2 µg/mL (≈ 1.41 µM)
  MIC Enterococcus faecalis (GC 4552): 2 µg/mL (≈ 1.41 µM)
  MIC Enterococcus faecalis (GC 4553): 1 µg/mL (≈ 0.707 µM)
  MIC Enterococcus faecalis (GC 4554): 2 µg/mL (≈ 1.41 µM)
  MIC Enterococcus faecalis (GC 6189): 1 µg/mL (≈ 0.707 µM)
  MIC Enterococcus faecium (GC 2243): 1 µg/mL (≈ 0.707 µM)
  MIC Enterococcus faecium (GC 4556): 1 µg/mL (≈ 0.707 µM)
  MIC Enterococcus faecium (GC 4557): 1 µg/mL (≈ 0.707 µM)
Staphylococcus sp.; strain ATCC 29213
  MIC Staphylococcus aureus (ATCC 29213): 0.5 µg/mL (≈ 0.354 µM)
Staphylococcus sp.; strain GC 1131
  MIC Staphylococcus aureus (GC 1131): 1 µg/mL (≈ 0.707 µM)
Staphylococcus sp.; strain GC 3051
  MIC Staphylococcus aureus (GC 3051): 1 µg/mL (≈ 0.707 µM)
Staphylococcus sp.; strain GC 3053
  MIC Staphylococcus aureus (GC 3053): 1 µg/mL (≈ 0.707 µM)
Staphylococcus sp.; strain GC 4541
  MIC Staphylococcus aureus (GC 4541): 1 µg/mL (≈ 0.707 µM)
Staphylococcus sp.; strain GC 4542
  MIC Staphylococcus aureus (GC 4542): 0.5 µg/mL (≈ 0.354 µM)
Staphylococcus sp.; strain GC 4543
  MIC Staphylococcus aureus-SMITH (GC 4543): 1 µg/mL (≈ 0.707 µM)
Staphylococcus sp.; strain GC 4544
  MIC Staphylococcus aureus (GC 4544): 1 µg/mL (≈ 0.707 µM)
Staphylococcus sp.; strain GC 4545
  MIC Staphylococcus aureus (GC 4545): 0.5 µg/mL (≈ 0.354 µM)
Staphylococcus sp.; strain GC 4546
  MIC Staphylococcus haemolyticus (GC 4546): 0.25 µg/mL (≈ 0.177 µM)
Staphylococcus sp.; strain GC 4547
  MIC Coagulase Negative Staphylococcus (GC 4547): 0.5 µg/mL (≈ 0.354 µM)
Staphylococcus sp.; strain GC 4548
  MIC Coagulase Negative Staphylococcus (GC 4548): 0.25 µg/mL (≈ 0.177 µM)
Staphylococcus sp.; strain GC 4549
  MIC Coagulase Negative Staphylococcus (GC 4549): 0.25 µg/mL (≈ 0.177 µM)
Staphylococcus sp.; strain GC 4551
  MIC Coagulase Negative Staphylococcus (GC 4551): 0.5 µg/mL (≈ 0.354 µM)
[3]
  Clinical Chemistry (Day 10) % of Control, BUN: 149%
  Clinical Chemistry (Day 10) % of Control, Creatinine: 121%
